# Data taken from ChEMBL document CHEMBL1201862, “PubChem BioAssay data set” (2004).
# Activity calls are given as the source filed them.
# Columns and labels:
# [1] = viability of uninfected HEp-2 cells – cell-based, HTS, cytotoxicity control for RSV inhibitor project, dose response (AID 2410); type: functional; conditions: human respiratory syncytial virus
# [2] = target: FAD-linked sulfhydryl oxidase ALR (Homo sapiens, UniProt P55789); assay: ALR-catalysed DTT oxidation blockers – biochemical, H2O2 detection, luminescence, cherry-pick, dose response (AID 493248)
# [3] = NIH-3T3 fibroblast cytotoxicity, dose response, cytotoxicity control, cell-based, fluorescence, Alamar Blue, secondary assay (AID 2327); type: functional;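 note: NIH-3T3 mouse fibroblasts cultured with fluconazole at 8 µg/mL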
# [4] = system: H4; assay: Luminescence Cell-Based Dose Response HTS to Identify Activators of 5'UTR Stem-Loop Driven Prion Protein mRNA Translation in H4 Neuroglioblastoma Cells. [Related pubchem assays: 1829 (Project Summary), 1814 (Primary HTS)]; type: functional; conditions: Homo sapiens
# [5] = Luminescence Cell-Based Dose Response HTS to Identify Activators of Luciferase Translation or Activity in H4 […] Cells. [Related pubchem assays: 1829 (Project Summary), 1814 (Primary HTS)]; type: functional
# [6] = target: T1, Replicative DNA helicase DnaB (Mycobacterium tuberculosis, UniProt P9WMR3); assay: DnaB intein splicing inhibitors, dose response, biochemical, cell-free fluorescence (AID 449749); type: functional
# T1 sequence (P9WMR3 whole entry): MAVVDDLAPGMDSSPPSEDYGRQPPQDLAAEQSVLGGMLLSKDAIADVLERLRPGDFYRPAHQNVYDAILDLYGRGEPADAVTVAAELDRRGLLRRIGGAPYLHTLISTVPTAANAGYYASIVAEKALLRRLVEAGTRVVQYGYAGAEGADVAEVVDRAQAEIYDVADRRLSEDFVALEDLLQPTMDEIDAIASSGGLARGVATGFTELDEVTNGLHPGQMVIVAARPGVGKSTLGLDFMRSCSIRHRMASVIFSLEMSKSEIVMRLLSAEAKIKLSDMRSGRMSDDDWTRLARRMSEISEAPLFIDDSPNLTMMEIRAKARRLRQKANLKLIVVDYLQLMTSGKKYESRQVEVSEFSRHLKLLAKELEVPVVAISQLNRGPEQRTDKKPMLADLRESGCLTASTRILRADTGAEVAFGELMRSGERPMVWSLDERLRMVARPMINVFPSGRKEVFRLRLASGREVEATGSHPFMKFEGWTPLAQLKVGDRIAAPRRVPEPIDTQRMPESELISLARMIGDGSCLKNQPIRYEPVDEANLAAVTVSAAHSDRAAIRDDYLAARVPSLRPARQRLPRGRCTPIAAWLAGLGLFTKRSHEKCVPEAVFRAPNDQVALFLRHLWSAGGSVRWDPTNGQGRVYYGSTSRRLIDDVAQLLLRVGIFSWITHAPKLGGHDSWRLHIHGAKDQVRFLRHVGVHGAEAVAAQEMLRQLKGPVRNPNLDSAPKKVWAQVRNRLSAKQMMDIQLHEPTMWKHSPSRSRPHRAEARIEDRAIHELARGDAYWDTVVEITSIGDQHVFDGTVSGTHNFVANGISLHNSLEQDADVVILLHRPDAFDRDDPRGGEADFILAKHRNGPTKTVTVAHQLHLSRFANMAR
# [7] = target: T2, Protein RecA (Mycobacterium tuberculosis, UniProt P9WHJ3); assay: Fluorescence Cell-Free Homogeneous Dose Retest to Identify Inhibitors of RecA-Intein Splicing Activity. [Related pubchem assays (depositor defined):AID2097, AID2223, AID489010, AID492950]; type: functional
# T2 sequence (P9WHJ3 whole entry): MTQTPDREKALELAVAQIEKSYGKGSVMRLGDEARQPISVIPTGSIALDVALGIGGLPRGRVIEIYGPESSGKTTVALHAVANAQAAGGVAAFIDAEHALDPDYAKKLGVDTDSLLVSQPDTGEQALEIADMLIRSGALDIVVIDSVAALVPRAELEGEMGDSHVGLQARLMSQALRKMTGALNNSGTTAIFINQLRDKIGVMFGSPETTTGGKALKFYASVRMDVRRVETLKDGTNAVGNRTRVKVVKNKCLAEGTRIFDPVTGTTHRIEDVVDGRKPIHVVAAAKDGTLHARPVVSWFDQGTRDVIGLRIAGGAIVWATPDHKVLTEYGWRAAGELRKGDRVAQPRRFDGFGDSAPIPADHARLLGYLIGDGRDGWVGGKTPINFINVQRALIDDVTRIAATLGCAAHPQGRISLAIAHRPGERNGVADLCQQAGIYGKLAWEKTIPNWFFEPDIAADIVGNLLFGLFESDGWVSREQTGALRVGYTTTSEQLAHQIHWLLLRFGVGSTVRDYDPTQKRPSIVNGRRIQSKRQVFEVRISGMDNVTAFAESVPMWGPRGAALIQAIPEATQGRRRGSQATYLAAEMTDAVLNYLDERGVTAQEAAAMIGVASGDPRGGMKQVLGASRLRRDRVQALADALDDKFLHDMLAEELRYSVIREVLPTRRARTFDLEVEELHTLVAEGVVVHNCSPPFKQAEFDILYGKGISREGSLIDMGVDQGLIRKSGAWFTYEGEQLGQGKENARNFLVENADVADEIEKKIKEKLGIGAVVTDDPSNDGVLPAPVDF
# [8] = target: T3, Rac GTPase-activating protein 1 (Homo sapiens, UniProt Q9H0H5); assay: blockers of MgcRacGAP-driven Rac1 GTP hydrolysis – biochemical, ADP Hunter fluorescence, primary and confirmatory, confirmation (AID 624330); type: functional
# T3 sequence (Q9H0H5 whole entry): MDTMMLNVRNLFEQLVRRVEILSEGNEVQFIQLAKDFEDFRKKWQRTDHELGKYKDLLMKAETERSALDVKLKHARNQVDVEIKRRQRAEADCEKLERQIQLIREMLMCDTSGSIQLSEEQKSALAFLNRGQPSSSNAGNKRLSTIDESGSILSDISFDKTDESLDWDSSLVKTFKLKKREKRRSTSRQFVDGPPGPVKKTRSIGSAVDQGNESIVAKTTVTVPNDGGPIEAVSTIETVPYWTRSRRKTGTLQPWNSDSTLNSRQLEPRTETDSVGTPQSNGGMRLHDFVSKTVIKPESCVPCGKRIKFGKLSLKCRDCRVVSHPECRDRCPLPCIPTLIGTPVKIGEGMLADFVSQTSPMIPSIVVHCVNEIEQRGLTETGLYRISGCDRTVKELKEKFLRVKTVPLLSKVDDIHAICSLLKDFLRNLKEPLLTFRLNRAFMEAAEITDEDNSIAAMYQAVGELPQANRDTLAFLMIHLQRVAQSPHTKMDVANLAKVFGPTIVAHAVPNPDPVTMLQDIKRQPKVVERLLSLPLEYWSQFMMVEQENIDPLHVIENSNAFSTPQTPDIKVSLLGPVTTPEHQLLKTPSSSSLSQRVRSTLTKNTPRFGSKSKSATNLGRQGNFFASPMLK
# [9] = target: T4, Fatty acid synthase (Homo sapiens, UniProt P49327); assay: inhibition of human FAS-TE enzyme activity – biochemical, endpoint fluorescence intensity, uHTS hits, dose response (AID 624327); type: functional;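 note: fluorescence from hydrolysis of an O-methyl fluorescein acyl ester substrate by the enzyme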
# [10] = target: T4, Fatty acid synthase; assay: inhibition of human FAS-TE enzyme activity – biochemical, kinetic fluorescence intensity, dose response (AID 624326); type: functional;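 note: rate of fluorescence rise from hydrolysis of a fluorogenic O-methyl fluorescein ester substrate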
# [11] = target: T5, Heat shock factor protein 1 (Mus musculus, UniProt P38532); assay: enhancement of HSF1-driven luciferase signal – cell-based, NIH3T3, luminescence, dose retest, confirmation (AID 435004); type: functional;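 note: stress induced by proteasome inhibitor MG132 added 30 min after compound; luciferase reporter driven by HSF1 response element in NIH3T3 cells; actives raise luminescence as potentiators of the MG132 stress response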
# T5 sequence (P38532 whole entry): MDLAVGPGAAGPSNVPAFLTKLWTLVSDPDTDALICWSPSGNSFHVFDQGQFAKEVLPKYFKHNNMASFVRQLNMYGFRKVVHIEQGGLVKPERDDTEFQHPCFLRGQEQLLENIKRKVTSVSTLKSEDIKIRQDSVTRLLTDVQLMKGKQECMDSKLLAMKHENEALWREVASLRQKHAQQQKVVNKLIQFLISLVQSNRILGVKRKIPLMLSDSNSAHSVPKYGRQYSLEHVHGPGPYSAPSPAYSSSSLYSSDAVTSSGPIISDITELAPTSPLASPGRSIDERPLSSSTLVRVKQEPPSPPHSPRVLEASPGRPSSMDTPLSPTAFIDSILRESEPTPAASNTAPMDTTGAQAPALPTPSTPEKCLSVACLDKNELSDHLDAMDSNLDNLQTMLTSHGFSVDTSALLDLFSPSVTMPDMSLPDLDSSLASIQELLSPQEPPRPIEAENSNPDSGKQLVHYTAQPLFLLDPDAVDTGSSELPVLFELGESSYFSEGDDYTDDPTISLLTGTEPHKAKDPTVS
# Chain of FAD-linked sulfhydryl oxidase ALR (P55789 whole entry): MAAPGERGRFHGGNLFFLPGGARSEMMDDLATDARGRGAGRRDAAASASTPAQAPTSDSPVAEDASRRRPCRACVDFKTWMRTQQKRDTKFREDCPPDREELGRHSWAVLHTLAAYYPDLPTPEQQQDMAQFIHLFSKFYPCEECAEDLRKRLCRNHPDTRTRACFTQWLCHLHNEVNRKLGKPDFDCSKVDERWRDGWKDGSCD
# T4 sequence (P49327 whole entry): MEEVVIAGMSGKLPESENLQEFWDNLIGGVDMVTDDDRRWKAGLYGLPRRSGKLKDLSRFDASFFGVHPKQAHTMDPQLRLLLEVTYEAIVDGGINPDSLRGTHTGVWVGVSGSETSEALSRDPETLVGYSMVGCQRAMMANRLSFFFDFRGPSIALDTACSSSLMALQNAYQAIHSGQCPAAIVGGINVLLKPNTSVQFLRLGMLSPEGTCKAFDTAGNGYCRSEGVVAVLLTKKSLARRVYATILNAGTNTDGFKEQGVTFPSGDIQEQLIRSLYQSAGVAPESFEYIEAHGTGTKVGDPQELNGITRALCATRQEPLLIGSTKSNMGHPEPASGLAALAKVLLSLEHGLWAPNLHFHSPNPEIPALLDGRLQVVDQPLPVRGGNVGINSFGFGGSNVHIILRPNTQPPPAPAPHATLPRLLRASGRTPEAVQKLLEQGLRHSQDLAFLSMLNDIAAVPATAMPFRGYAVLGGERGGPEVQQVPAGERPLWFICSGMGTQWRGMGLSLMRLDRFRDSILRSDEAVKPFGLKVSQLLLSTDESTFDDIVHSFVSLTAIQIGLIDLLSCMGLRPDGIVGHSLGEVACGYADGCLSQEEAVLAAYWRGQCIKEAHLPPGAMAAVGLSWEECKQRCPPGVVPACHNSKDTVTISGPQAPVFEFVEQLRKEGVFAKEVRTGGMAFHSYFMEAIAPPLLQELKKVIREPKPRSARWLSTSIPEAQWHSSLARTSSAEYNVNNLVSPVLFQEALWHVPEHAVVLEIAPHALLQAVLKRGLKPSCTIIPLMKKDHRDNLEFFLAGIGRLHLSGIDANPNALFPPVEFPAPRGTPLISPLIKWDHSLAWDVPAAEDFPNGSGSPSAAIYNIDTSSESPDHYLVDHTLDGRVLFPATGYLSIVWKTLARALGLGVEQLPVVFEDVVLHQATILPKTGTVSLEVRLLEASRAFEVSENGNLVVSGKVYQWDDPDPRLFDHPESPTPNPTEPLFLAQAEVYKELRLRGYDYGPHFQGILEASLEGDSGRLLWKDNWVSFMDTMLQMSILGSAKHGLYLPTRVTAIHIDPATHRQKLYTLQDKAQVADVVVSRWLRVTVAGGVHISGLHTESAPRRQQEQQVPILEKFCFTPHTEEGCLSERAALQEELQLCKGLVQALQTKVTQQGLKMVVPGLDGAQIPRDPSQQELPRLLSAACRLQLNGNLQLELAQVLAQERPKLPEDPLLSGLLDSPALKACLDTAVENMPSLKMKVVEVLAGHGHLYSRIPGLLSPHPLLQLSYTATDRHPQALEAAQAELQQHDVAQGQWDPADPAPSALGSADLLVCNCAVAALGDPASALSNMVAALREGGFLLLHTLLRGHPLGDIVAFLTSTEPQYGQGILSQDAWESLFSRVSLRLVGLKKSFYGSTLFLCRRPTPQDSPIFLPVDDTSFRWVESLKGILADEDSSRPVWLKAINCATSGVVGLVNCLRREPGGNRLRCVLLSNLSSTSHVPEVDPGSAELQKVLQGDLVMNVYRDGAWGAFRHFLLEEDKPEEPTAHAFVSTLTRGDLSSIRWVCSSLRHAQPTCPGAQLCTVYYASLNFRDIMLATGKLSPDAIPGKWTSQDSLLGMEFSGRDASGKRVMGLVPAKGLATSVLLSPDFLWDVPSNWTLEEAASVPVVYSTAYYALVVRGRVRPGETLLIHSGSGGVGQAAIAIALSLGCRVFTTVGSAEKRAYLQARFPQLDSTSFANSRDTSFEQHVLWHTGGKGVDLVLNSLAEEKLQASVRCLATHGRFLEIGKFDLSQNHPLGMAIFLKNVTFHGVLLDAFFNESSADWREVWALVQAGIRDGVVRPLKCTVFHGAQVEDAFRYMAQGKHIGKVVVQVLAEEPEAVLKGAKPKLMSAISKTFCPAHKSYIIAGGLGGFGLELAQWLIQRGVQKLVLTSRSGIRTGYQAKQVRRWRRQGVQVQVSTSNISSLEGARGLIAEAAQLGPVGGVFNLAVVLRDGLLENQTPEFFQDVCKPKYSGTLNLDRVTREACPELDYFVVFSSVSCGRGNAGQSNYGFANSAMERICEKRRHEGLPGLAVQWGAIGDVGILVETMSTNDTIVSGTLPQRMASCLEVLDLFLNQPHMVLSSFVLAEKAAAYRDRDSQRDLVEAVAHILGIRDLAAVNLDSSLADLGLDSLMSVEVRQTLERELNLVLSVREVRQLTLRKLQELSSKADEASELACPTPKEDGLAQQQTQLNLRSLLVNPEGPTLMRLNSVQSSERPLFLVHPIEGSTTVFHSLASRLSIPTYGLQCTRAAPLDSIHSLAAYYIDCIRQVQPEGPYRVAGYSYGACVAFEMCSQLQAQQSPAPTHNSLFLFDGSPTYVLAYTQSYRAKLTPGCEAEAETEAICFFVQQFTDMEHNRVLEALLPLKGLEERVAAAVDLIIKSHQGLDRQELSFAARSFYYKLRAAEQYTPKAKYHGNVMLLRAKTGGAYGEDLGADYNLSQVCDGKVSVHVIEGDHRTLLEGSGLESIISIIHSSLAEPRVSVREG
smiles,measurement,setting,value
Cc1cc(C)c2c(c1)cc(C)c1nnc(SCC(=O)N3CCCc4ccccc43)n12,CC50,[1],44.2 µM (active)
CCOc1ccc(S(=O)(=O)N2CCC(C(=O)NCC(=O)Nc3cccc(Cl)c3C)CC2)cc1,CC50,[1],49.1 µM (active)
CCC(=O)c1cc(F)c(N2CCN(C(=O)Cc3ccccc3)CC2)cc1C,CC50,[1],17 µM (active)
CC(C(=O)NC1C=CS(=O)(=O)C1)N1C(=O)/C(=C\c2ccccc2)SC1=S (stereo not drawn),AC50,[2],0.359 µM (active)
CCC1(c2ccc(Cl)cc2)N=C(S)N(c2ccccc2)N1 (stereo not drawn),EC50,[3],14.2 µM (active)
CCOC(=O)c1ccc2[nH]c3c(c2c1)CCCC3O (stereo not drawn),CC50,[1],47.1 µM (active)
Cc1ccc2oc(-c3cccc(NC(=O)Cn4cnc5c(=O)n(C)c(=O)n(C)c54)c3)nc2c1,EC50,[4],6.94 µM (active)
same,EC50,[5],42.3 µM (active)
c1ccc(Sc2ncnc3ccccc23)cc1,AC50,[6],21.9 µM (active)
same,EC50,[7],11.2 µM (active)
CC(=O)Nc1ccc(N2C(=O)CSC2c2ccc(F)cc2)cc1 (stereo not drawn),AC50,[2],< 0.005 µM (active)
CCN(CC)c1ccc(NS(=O)(=O)c2ccc3c(c2)oc(=O)n3C)c(C)c1,AC50,[2],0.409 µM (active)
O=C1NC(=O)N(c2ccc(C(=O)O)cc2)C(=O)/C1=C/c1c[nH]c2ccccc12,IC50,[8],97.5 µM (active)
same,AC50,[2],0.177 µM (active)
CC(C(=O)NCCc1ccccc1)N1c2cccc3cccc(c23)S1(=O)=O (stereo not drawn),CC50,[1],45.6 µM (active)
CCN(CC)c1ccc(NS(=O)(=O)c2ccc(OC)cc2)cc1,AC50,[2],5.11 µM (active)
Cc1ccc(/C=C/c2ccc(=O)n(Cc3ccc(F)cc3)n2)cc1,IC50,[9],11.8 µM (active)
same,IC50,[10],14 µM (active)
Cc1cccc(NNC(=O)C(=O)NNc2cccc(C)c2)c1,EC50,[3],2.38 µM (active)
CC(=O)Nc1sc(NC(=O)c2ccccc2)nc1-c1cccs1,AC50,[2],3.14 µM (active)
COc1ccc(-c2ncc3ccccn23)cc1,EC50,[4],32.1 µM (active)
same,EC50,[5],101 µM (active)
COc1ccc(C(=O)CN(CCC(=O)O)S(=O)(=O)c2ccc([N+](=O)[O-])cc2)cc1,IC50,[9],3.51 µM (active)
same,IC50,[10],6.15 µM (active)
COc1ccc(-c2cc(-c3ccccc3O)[nH]n2)cc1OC,CC50,[1],> 50 µM (active)
COc1ccc(NC(=O)N2CCN(c3nc(-c4cccc(OC)c4)cs3)CC2)cc1,CC50,[1],9.75 µM (active)
Cc1onc(-c2ccccc2)c1C(=O)n1nnc2ccccc21,AC50,[6],7.85 µM (active)
same,IC50,[9],12.9 µM (active)
same,EC50,[7],13 µM (active)
same,IC50,[10],10.3 µM (active)
O=[N+]([O-])c1ccc(CSc2ccc(S(=O)(=O)N3CCCC3)cn2)cc1,IC50,[9],12.1 µM (active)
same,IC50,[10],10.6 µM (active)
Cc1c(Br)c([N+](=O)[O-])nn1CC(=O)N1CCc2ccccc2C1,IC50,[9],4.38 µM (active)
same,IC50,[10],6.67 µM (active)
CCc1cccc(NC(=O)c2cccc3c2C(=O)N(C2CCCCC2)C3)c1,CC50,[1],38.1 µM (active)
COC(=O)Nc1nn(-c2ccc(OC)cc2)c(=O)c(C#N)c1C,AC50,[6],25.9 µM (active)
same,EC50,[7],6.31 µM (active)
COc1ccc(N2CCN(C(=O)c3ccc(-n4nc(C)cc4C)cc3)CC2)cc1,CC50,[1],42 µM (active)
O=C(Cc1ccc(Cl)cc1)Nc1ccc(Br)cc1,EC50,[3],> 150 µM (inconclusive)
CC(OC(=O)c1cccc([N+](=O)[O-])c1)C(=O)N1CCc2ccccc21 (stereo not drawn),IC50,[9],3.92 µM (active)
same,IC50,[10],3.98 µM (active)
CC[C@@H]1[C@H]2CCCC(=O)N3CC[C@@H](C[C@@H]1Nc1ccccc1)[C@@H]23,EC50,[11],> 260 µM (inactive)
same,AC50,[2],0.008 µM (active)
O=C(COC(=O)c1cc([N+](=O)[O-])ccc1N1CCOCC1)c1ccccc1,IC50,[9],9.63 µM (active)
same,IC50,[10],6.51 µM (active)
CCCC(C)C1c2c(c(C)c(C)oc2=O)Oc2c(C)c(C)oc(=O)c21 (stereo not drawn),IC50,[9],9.33 µM (active)
same,IC50,[10],8.38 µM (active)
CCS(=O)(=O)N1CCN=C1SCc1cccnc1,AC50,[2],2.06 µM (active)
O[C@H]1C[C@H](c2ccccc2)N(CC2CCCCC2)C[C@@H]1n1cc(C2CC2)nn1,IC50,[9],8.28 µM (active)
same,IC50,[10],6.52 µM (active)
C/C(CC(=O)NCc1ccco1)=N\NC(=O)c1ccc([N+](=O)[O-])cc1Cl,AC50,[6],10.2 µM (active)
same,EC50,[7],5.56 µM (active)
COc1ccc(C2=NC(c3ccccc3)CO2)cc1 (stereo not drawn),EC50,[5],39.5 µM (active)
CN(C)c1ccc(/C=N/NC(=O)CNC(=O)c2ccncc2)cc1,AC50,[2],3.61 µM (active)
CCOC(=O)N/N=C1\CCc2ccccc21,EC50,[4],11.7 µM (active)
same,EC50,[5],7.73 µM (active)
COC(=O)N/N=C\c1ccc(OC(=O)c2ccco2)cc1,AC50,[6],44.6 µM (active)
same,EC50,[7],16.7 µM (active)
